The test has as its target T1, recombinant HSL (Homo sapiens, UniProt Q05469).
T1 sequence (Q05469 1-1076): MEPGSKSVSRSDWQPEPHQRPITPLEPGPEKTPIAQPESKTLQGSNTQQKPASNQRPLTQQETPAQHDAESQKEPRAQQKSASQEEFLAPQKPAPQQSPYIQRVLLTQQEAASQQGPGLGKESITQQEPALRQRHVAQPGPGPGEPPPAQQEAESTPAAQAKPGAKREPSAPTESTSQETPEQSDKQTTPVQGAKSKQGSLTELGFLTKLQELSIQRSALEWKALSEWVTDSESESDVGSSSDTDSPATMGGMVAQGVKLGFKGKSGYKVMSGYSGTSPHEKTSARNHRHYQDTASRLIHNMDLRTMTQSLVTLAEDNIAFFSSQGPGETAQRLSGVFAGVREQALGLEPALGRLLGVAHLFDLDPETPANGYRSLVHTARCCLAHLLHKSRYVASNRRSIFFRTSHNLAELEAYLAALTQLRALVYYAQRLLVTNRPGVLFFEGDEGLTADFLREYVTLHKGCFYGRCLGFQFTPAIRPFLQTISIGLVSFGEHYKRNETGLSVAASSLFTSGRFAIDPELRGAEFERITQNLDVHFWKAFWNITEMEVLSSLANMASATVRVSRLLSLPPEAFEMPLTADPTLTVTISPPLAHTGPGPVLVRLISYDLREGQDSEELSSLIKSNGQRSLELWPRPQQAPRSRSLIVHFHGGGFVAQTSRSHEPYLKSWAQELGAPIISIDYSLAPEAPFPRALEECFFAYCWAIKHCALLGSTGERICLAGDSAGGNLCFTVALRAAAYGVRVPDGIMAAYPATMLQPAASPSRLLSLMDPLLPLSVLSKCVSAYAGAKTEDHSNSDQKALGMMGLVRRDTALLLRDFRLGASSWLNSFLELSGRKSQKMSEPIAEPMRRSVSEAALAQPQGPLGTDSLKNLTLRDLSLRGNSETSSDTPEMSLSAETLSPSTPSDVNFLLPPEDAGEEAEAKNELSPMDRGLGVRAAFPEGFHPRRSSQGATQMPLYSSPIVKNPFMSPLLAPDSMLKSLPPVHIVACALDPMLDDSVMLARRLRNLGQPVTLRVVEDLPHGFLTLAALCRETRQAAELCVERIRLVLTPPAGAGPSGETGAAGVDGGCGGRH
In words: Inhibition of recombinant HSL activity. The format is biochemical. The protocol:
Compounds 1-7 were dissolved in 20% DMSO as 10 mg/mL stock, and used in assays with recombinant HSL to test for the potency for inhibiting HSL activity, the protocol for which is described in International Patent Application No. PCT/US07/00284, which is incorporated by reference in its entirety herein. Each compound's inhibitory effect on HSL is shown in FIG. 1 and 2, with Compound 1 having an IC50 of about 0.1 to about 0.2 mg/mL and Compound 5 showing about 40% inhibition at 0.4 mg/mL.

As to `CCN(CC)C(CC(=O)OCCc1ccc(O)cc1)CC(=O)OCc1ccccc1` (centres unmarked) [Compound 1], the IC50 (compound stock 10 mg/mL in 20% DMSO, read-out: IC50 for inhibiting HSL activity) was 242 to 484 µM.

In the case of `COC(=O)C(=O)NC(CC(=O)NCCc1ccc(O)cc1)CC(=O)OCc1ccccc1` (centres unmarked) [Compound 5], under “at 0.4 mg/mL”, the inhibition at 400 µg/mL is approximately 40%.
